In patent US10968225B2, “Compounds and compositions for the treatment of cystic fibrosis” (Fondazione Istituto Italiano Di Tecnologia, priority 2017, dated 2021):

How the values were obtained:
Assay type in all cases: cell-based
F508del-CFTR [1] = molecular target: T1, F508del-CFTR (Homo sapiens, UniProt P13569, DEL508-508); assay: Transepithelial electrical conductance (TEEC) in FRT cells; design: expressed in transfected cells; host or cells: FRT cells; conditions: compounds tested at 5.0 µM; FRT cells expressing F508del-CFTR; 24 hrs incubation; forskolin and genistein stimulation minus PPQ-102 block
Protocol: Transepithelial Electrical Conductance (TEEC)
FRT cells expressing F508del-CFTR were plated on HTS Transwell-24 well permeable supports (Code 3379, Corning Life Sciences) at a density of 200,000 cells/well. After six days, cells were incubated for 24 hrs with test correctors, vehicle, or VX-809. Compounds were dissolved in both basolateral (800 μL) and apical (300 μL) culture medium. After treatment, the culture medium was removed and replaced on both sides with a saline solution containing (in mM): 130 NaCl, 2.7 KCl, 1.5 KH2PO4, 1 CaCl2, 0.5 MgCl2, 10 glucose, 10 Na-Hepes (pH 7.4). The basolateral and apical side received 800 μL and 100 μL, respectively. The 24-well tray with cells was placed on a block heater (SBH 130D, Stuart) to keep the temperature at 37° C. during the entire experiment. After 10 min, the basal transepithelial electrical resistance (TEER) across each layer of FRT cells was measured with a STX100C electrode pair connected to an EVOM2 voltohmeter (World Precision Instruments). To stimulate F508del-CFTR, each well received (apical side) 50 μL of saline solution containing 60 μM forskolin and 150 μM genistein (final concentrations: 20 μM forskolin, 50 μM genistein). Forskolin was also pipetted in the basolateral medium to obtain the 20 μM concentration. After 10 min TEER was measured again in each well. To block F508del-CFTR function, the inhibitor PPQ-102 was used at the final concentration of 30 μM. To achieve the desired concentration, 75 μL of the apical solution in each well was replaced with an equal volume of saline solution containing 20 μM forskolin, 50 μM genistein, and 60 μM PPQ-102. After further 10 min, the transepithelial electrical resistance was measured. All values of TEER were converted to transepithelial electrical conductance (TEEC) using the formula TEEC=1/TEER. The parameter to indicate activity of F508del-CFTR in each well (ΔTEEC) was calculated from the difference in TEEC measured after maximal stimulation of F508del-CFTR with forskolin and genistein and after block with PPQ-102.
Corrector activities obtained on selected compounds tested at 5.0 µM (expressed as ΔTEEC values) are illustrated in table 2, wherein +: ΔTEEC<2000 µS; ++: 2000 µS<ΔTEEC<3000[…]S; +++: ΔTEEC>3000 µS.

F508del-CFTR [2] = molecular target: T1, F508del-CFTR; assay: Short-circuit current recordings on human bronchial epithelial cells; design: Human bronchial epithelial (HBE) cells obtained from CF patients (F508del/F508del genotype); endogenous in cells; host or cells: primary human bronchial epithelial cells from CF patients, F508del/F508del; conditions: compounds tested at 1.0 µM; HBE cells from CF patients (F508del/F508del); 24 hrs treatment; CPT-cAMP plus VX-770 minus CFTRinh-172
Protocol: Short-Circuit Current Recordings on Human Bronchial Epithelial Cells
Human bronchial epithelial (HBE) cells obtained from CF patients (F508del/F508del genotype) were plated on Snapwell inserts (Code 3801, Corning Life Sciences) at a density of 500,000 cells per insert. Cells were cultured for two weeks in a differentiating medium whose compositions has been previously described (Scudieri et al., J Physiol 590:6141-6155, 2012). For the first week, the medium was kept on both apical and basolateral sides of inserts (submerged condition). For the second week, the apical medium was removed (air-liquid condition, ALC). To test the activity of correctors, cells were treated for 24 hrs with compounds dissolved in the basolateral medium. After treatment, Snapwell inserts carrying differentiated bronchial epithelia were mounted in a vertical chamber resembling an Ussing system with internal fluid circulation. Both apical and basolateral hemichambers were filled with 5 mL of a Krebs bicarbonate solution containing (in mM): 126 NaCl, 0.38 KH2PO4, 2.13 K2HPO4, 1 MgSO4, 1 CaCl2, 24 NaHCO3, and 10 glucose. Both sides were continuously bubbled with a gas mixture containing 5% CO2-95% air and the temperature of the solution was kept at 37° C. The transepithelial voltage was short-circuited with a voltage-clamp (DVC-1000, World Precision Instruments) connected to the apical and basolateral chambers via Ag/AgCl electrodes and agar bridges (1 M KCl in 1% agar). The offset between voltage electrodes and the fluid resistance were canceled before experiments. The short-circuit current was recorded with a PowerLab 4/25 (ADInstruments) analogical to digital converter connected to a Macintosh computer. […] The difference between the current measured with CPT-cAMP plus potentiator and the current remaining after CFTRinh-172 treatment ([…]ICFTR) was taken as the parameter reflecting F508del-CFTR expression in the apical membrane.
Activities of selected compounds on HBE cells tested at 1.0 µM (expressed as […]ICFTR) are illustrated in table 3 wherein +: […]ICFTR<2.0 µA; ++: 2 μA<[…]ICFTR<3.0 μA; +++: […]ICFTR>3.0 µA.

mutant CFTR = molecular target: T2, mutant CFTR (Homo sapiens, UniProt P13569, DEL508-508); assay: Fluorescence (HS-YFP) assay for CFTR activity, corrector assay; conditions: CFBE41o- and FRT cells with stable expression of mutant CFTR, read-out: activity (EC50)
T2 construct: expressed in transfected cells
T2 sequence (P13569 with tags, fused parts or gaps DEL508-508): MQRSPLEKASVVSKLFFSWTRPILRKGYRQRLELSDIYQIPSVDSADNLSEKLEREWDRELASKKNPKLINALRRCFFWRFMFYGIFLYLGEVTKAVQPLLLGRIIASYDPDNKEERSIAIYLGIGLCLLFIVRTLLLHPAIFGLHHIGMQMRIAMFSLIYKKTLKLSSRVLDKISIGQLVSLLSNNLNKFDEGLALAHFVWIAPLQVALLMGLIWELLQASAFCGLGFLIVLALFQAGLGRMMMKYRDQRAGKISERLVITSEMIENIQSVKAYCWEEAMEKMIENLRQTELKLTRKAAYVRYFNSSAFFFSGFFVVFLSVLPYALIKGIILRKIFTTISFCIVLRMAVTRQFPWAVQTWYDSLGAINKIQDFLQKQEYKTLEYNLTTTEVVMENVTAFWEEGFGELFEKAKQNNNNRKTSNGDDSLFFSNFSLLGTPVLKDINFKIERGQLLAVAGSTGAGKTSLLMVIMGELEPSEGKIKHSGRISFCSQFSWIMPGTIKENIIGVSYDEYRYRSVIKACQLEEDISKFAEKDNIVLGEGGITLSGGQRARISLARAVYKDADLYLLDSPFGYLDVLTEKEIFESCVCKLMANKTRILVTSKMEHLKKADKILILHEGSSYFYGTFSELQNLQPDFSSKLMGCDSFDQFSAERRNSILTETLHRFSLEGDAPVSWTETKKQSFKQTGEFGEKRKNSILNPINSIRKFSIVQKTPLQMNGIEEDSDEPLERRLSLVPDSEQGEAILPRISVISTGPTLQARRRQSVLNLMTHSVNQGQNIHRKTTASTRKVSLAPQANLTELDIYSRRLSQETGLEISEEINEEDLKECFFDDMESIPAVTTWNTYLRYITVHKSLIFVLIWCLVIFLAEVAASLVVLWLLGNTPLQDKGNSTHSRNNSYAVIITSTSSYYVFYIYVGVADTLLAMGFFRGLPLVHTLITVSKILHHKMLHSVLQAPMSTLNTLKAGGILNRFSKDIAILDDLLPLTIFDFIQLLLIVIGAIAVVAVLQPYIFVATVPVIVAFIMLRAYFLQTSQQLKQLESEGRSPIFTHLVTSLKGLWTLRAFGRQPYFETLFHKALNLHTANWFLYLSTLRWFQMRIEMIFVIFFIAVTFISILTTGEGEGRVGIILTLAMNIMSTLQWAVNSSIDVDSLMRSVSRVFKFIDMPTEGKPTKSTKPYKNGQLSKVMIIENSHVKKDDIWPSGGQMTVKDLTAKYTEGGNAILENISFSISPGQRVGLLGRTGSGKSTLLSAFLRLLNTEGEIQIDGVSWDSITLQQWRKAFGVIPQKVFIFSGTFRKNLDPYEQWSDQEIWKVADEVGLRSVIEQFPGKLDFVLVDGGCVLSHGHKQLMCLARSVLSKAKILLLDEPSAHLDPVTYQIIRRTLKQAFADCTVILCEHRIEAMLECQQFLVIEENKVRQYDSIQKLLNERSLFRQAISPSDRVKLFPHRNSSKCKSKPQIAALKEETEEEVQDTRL

T1 sequence (P13569 with tags, fused parts or gaps DEL508-508): as above

Compound | Corrector activity (expressed as ΔTEEC values) (F508del-CFTR [1]) | activity on HBE cells (expressed as […]ICFTR) (F508del-CFTR [2]) | EC50 (mutant CFTR) [nM]
CN(C(=O)c1cccc(-n2nc(C(F)(F)F)c3c2CCN(C(=O)Nc2ccccc2)C3)c1)c1ccc2c(c1)OCO2 [Compound 010, 1-[3-[1,3-Benzodioxol-5-yl(methyl)carbamoyl]phenyl]-N-phenyl-3-(trifluoromethyl)-6,7-dihydro-4H-pyrazolo[4,3-c] pyridine-5-carboxamide] | ++ (2000 µS<ΔTEEC<3000[…]S) | ++ (2 μA<[…]ICFTR<3.0 μA) | < 1000
CN(C(=O)c1cccc(-n2nc(C(F)(F)F)c3c2CCN(Cc2ccccc2)C3)c1)c1ccc2c(c1)OCO2 [Compound 012, N-(1,3-Benzodioxol-5-yl)-3-[5-benzyl-3-(trifluoromethyl)-6,7-dihydro-4H-pyrazolo[4,3-c]pyridin-1-yl]-N-methyl-benzamide] | ++ (2000 µS<ΔTEEC<3000[…]S) | + ([…]ICFTR<2.0 µA) | < 1000
CN(C(=O)c1cccc(-n2nc(C(F)(F)F)c3c2C(Oc2ccc(C(=O)O)cc2)COC3)c1)c1ccc2c(c1)OC(F)(F)O2 (stereo not shown) [Compound 202, 4-[[1-[3-[(2,2-Difluoro-1,3-benzodioxol-5-yl)-methyl-carbamoyl]phenyl]-3-(trifluoromethyl)-6,7-dihydro-4H-pyrano[4,3-c]pyrazol-7-yl]oxy]benzoic acid] |  |  | < 1000
CN(C(=O)c1cccc(-n2nc(C(F)(F)F)c3c2C(Oc2ccc(C(=O)O)nn2)CCC3)c1)c1ccc2c(c1)OC(F)(F)O2 (racemic) [Compound 302, 6-[[1-[3-[(2,2-Difluoro-1,3-benzodioxol-5-yl)-methyl-carbamoyl]phenyl]-3-(trifluoromethyl)-4,5,6,7-tetrahydroindazol-7-yl]oxy]pyridazine-3-carboxylic acid] |  |  | > 2000
CN(C(=O)c1cccc(-n2nc(C(F)(F)F)c3c2C(Oc2ncc(C(=O)O)cn2)COC3)c1)c1ccc2c(c1)OC(F)(F)O2 (racemic) [Compound 295, 2-[[1-[3-[(2,2-Difluoro-1,3-benzodioxol-5-yl)-methyl-carbamoyl]phenyl]-3-(trifluoromethyl)-6,7-dihydro-4H-pyrano[4,3-c]pyrazol-7-yl]oxy]pyrimidine-5-carboxylic acid] |  |  | 1000 to 2000
Cc1nc2cc(F)c(NC(=O)c3cccc(-n4nc(C(F)(F)F)c5c4CCN(C(=O)OC(C)(C)C)C5)c3)cc2o1 [Compound 037, tert-Butyl 1-[3-[(5-fluoro-2-methyl-1,3-benzoxazol-6-yl)carbamoyl]phenyl]-3-(trifluoromethyl)-6,7-dihydro-4H-pyrazolo[4,3-c]pyridine-5-carboxylate] |  |  | > 2000
Cc1n[nH]c(C)c1S(=O)(=O)N1[C@H]2CC[C@@H]1c1c(C(F)(F)F)nn(-c3cccc(C(=O)N(C)c4ccc5c(c4)OCO5)c3)c1C2 (single isomer, unassigned) [Compound 130, (4R,7S)- or (4S,7R)—N-(Benzo[d][1,3]dioxol-5-yl)-3-(9-((3,5-dimethyl-1H-pyrazol-4-yl)sulfonyl)-3-(trifluoromethyl)-5,6,7,8-tetrahydro-4,7-epiminocyclohepta[c]pyrazol-1(4H)-yl)-N-methylbenzamide] |  |  | < 1000
CN(C(=O)c1cccc(-n2nc(C(F)(F)F)c3c2C(Oc2ccc(C(=O)O)cc2)CCC3)c1)c1ccnc(OC(F)F)c1 (single isomer, unassigned) [Compound 289, (S) or (R)-4-[[1-[3-[[2-(Difluoromethoxy)-4-pyridyl]-methyl-carbamoyl]phenyl]-3-(trifluoromethyl)-4,5,6,7-tetrahydroindazol-7-yl]oxy]benzoic acid] |  |  | < 1000
Cc1nn(CCC(=O)O)c(C)c1S(=O)(=O)N1CCc2c(c(C(F)(F)F)nn2-c2cccc(C(=O)N(C)c3ccc4c(c3)OCO4)c2)C1 [Compound 086, 3-[4-[[1-[3-[1,3-Benzodioxol-5-yl(methyl)carbamoyl]phenyl]-3-(trifluoromethyl)-6,7-dihydro-4H-pyrazolo[4,3-c]pyridin-5-yl]sulfonyl]-3,5-dimethyl-pyrazol-1-yl] propanoic acid] |  |  | < 1000
Cc1cc2ncc(N(C)C(=O)c3cccc(-n4nc(C(F)(F)F)c5c4[C@H](Oc4ccc(C(=O)O)cc4)CCC5)c3)cn2n1 (single isomer, unassigned) [Compound 217, (S) or (R)-4-[[1-[3-[Methyl-(2-methylpyrazolo[1,5-a]pyrimidin-6-yl)carbamoyl]phenyl]-3-(trifluoromethyl)-4,5,6,7-tetrahydroindazol-7-yl]oxy]benzoic acid] |  |  | < 1000
CN1CCc2c(c(C(F)(F)F)nn2-c2cccc(S(=O)(=O)N(C)c3ccc4c(c3)OCO4)c2)C1 [Compound 071, N-(1,3-Benzodioxol-5-yl)-N-methyl-3-[5-methyl-3-(trifluoromethyl)-6,7-dihydro-4H-pyrazolo[4,3-c]pyridin-1-yl]benzenesulfonamide] |  |  | > 2000
CN(C(=O)c1cccc(-n2nc(C(F)(F)F)c3c2C[C@@H]2CC[C@H]3N2C(=O)OC(C)(C)C)c1)c1ccc2c(c1)OCO2 (single isomer, unassigned) [Compound 053, (4S,7R)- or (4R,7S)-tert-Butyl-1-(3-(benzo[d][1,3]dioxol-5-yl(methyl)carbamoyl)phenyl)-3-(trifluoromethyl)-1,4,5,6,7,8-hexahydro-4,7-epiminocyclohepta[c]pyrazole-9-carboxylate] |  |  | < 1000
CN(C(=O)c1cccc(-n2nc(C(F)(F)F)c3c2C(Oc2ncc(C(=O)O)cn2)COC3)c1)c1cnc2c(c1)CCC2 (racemic) [Compound 305, (rac)-2-[[1-[3-[6,7-dihydro-5H-cyclopenta[b]pyridin-3-yl(methyl)carbamoyl]phenyl]-3-(trifluoro-methyl)-6,7-dihydro-4H-pyrano[4,3-c]pyrazol-7-yl]oxy]pyrimidine-5-carboxylic acid] |  |  | < 1000
Cc1nn(-c2cccc(C(=O)N(C)c3ccc4c(c3)OC(F)(F)O4)c2)c2c1CCCC2 [Compound 103, N-(2,2-Difluoro-1,3-benzodioxol-5-yl)-N-methyl-3-(3-methyl-4,5,6,7-tetrahydroindazol-1-yl)benzamide] |  |  | > 2000
CN(C(=O)c1cccc(-n2nc(C(F)(F)F)c3c2CCN(Cc2cccc(C(=O)O)c2)C3)c1)c1ccc2c(c1)OCO2 [Compound 025, 3-[[1-[3-[1,3-Benzodioxol-5-yl(methyl)carbamoyl]phenyl]-3-(trifluoromethyl)-6,7-dihydro-4H-pyrazolo[4,3-c]pyridin-5-yl]methyl]benzoic acid] |  |  | < 1000
